In the supplement of paper PMC10307832:

Tests used:
Assay in all cases: relative viability (nuclei count vs DMSO), 5 days (fraction); higher = more cells survive
A-427 = test system: A-427
How it was run: (§1)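 Five library-drug doses in √10 steps were combined with a fixed anchor-drug dose, or a single drug was given alone, by pin tool to lung cancer cell lines in 1536-well plates the day after seeding. Nuclei were stained and counted after 5 days. Relative viability is the nuclei count in treated wells over that in vehicle wells, taken as the median of duplicate plates.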

CAL-12T = test system: CAL-12T
How it was run: as §1

COR-L 105 = test system: COR-L 105
How it was run: as §1

EMC-BAC-2 = test system: EMC-BAC-2
How it was run: as §1

HARA = test system: HARA
How it was run: as §1

HCC-366 = test system: HCC-366
How it was run: as §1

HCC-827 = test system: HCC-827
How it was run: as §1

HOP-62 = test system: HOP-62
How it was run: as §1

LCLC-103H = test system: LCLC-103H
How it was run: as §1

NCI-H1355 = test system: NCI-H1355
How it was run: as §1

NCI-H1395 = test system: NCI-H1395
How it was run: as §1

NCI-H1437 = test system: NCI-H1437
How it was run: as §1

NCI-H1755 = test system: NCI-H1755
How it was run: as §1

NCI-H1792 = test system: NCI-H1792
How it was run: as §1

NCI-H1915 = test system: NCI-H1915
How it was run: as §1

NCI-H1975 = test system: NCI-H1975
How it was run: as §1

NCI-H2009 = test system: NCI-H2009
How it was run: as §1

NCI-H2228 = test system: NCI-H2228
How it was run: as §1

NCI-H23 = test system: NCI-H23
How it was run: as §1

NCI-H460 = test system: NCI-H460
How it was run: as §1

NCI-H727 = test system: NCI-H727
How it was run: as §1

SK-LU-1 = test system: SK-LU-1
How it was run: as §1

SW 1573 = test system: SW 1573
How it was run: as §1

C[C@@H]1CN(CC(=O)Nc2ccc3c(c2)Cc2cccc(-c4cc(=O)cc(N5CCOCC5)o4)c2S3)C[C@H](C)O1 + C[C@]1(O)C[C@@H](c2nc(-c3ccc4ccc(-c5ccccc5)nc4c3)c3c(N)nccn32)C1 [Linsitinib] (partner 1 µM)
relative viability (A-427; first compound 0.04 µM): 1.23
relative viability (A-427; first compound 0.1265 µM): 1.14
relative viability (A-427; first compound 0.4 µM): 1.12
relative viability (A-427; first compound 4 µM): 1.11
relative viability (CAL-12T; first compound 0.04 µM): 0.893
relative viability (CAL-12T; first compound 0.1265 µM): 0.78
relative viability (CAL-12T; first compound 0.4 µM): 0.648
relative viability (CAL-12T; first compound 4 µM): 0.54
relative viability (COR-L 105; first compound 0.04 µM): 1.01
relative viability (COR-L 105; first compound 0.1265 µM): 1.1
relative viability (COR-L 105; first compound 0.4 µM): 0.746
relative viability (COR-L 105; first compound 4 µM): 0.996
relative viability (EMC-BAC-2; first compound 0.04 µM): 0.805
relative viability (EMC-BAC-2; first compound 0.1265 µM): 0.765
relative viability (EMC-BAC-2; first compound 0.4 µM): 0.757
relative viability (EMC-BAC-2; first compound 4 µM): 0.77
relative viability (HARA; first compound 0.04 µM): 0.997
relative viability (HARA; first compound 0.1265 µM): 0.876
relative viability (HARA; first compound 0.4 µM): 0.893
relative viability (HARA; first compound 4 µM): 0.906
relative viability (HCC-366; first compound 0.04 µM): 0.752
relative viability (HCC-366; first compound 0.1265 µM): 0.622
relative viability (HCC-366; first compound 0.4 µM): 0.428
relative viability (HCC-366; first compound 4 µM): 0.495
relative viability (HCC-827; first compound 0.04 µM): 1
relative viability (HCC-827; first compound 0.1265 µM): 0.895
relative viability (HCC-827; first compound 0.4 µM): 0.978
relative viability (HCC-827; first compound 4 µM): 0.954
relative viability (HOP-62; first compound 0.04 µM): 0.93
relative viability (HOP-62; first compound 0.1265 µM): 0.945
relative viability (HOP-62; first compound 0.4 µM): 0.897
relative viability (HOP-62; first compound 4 µM): 0.947
relative viability (LCLC-103H; first compound 0.04 µM): 1.09
relative viability (LCLC-103H; first compound 0.1265 µM): 0.896
relative viability (LCLC-103H; first compound 0.4 µM): 1.18
relative viability (LCLC-103H; first compound 4 µM): 1.14
relative viability (NCI-H1355; first compound 0.04 µM): 0.857
relative viability (NCI-H1355; first compound 0.1265 µM): 0.792
relative viability (NCI-H1355; first compound 0.4 µM): 0.866
relative viability (NCI-H1355; first compound 4 µM): 0.815
relative viability (NCI-H1395; first compound 0.04 µM): 1.14
relative viability (NCI-H1395; first compound 0.1265 µM): 1.16
relative viability (NCI-H1395; first compound 0.4 µM): 0.992
relative viability (NCI-H1395; first compound 4 µM): 0.953
relative viability (NCI-H1437; first compound 0.04 µM): 1.01
relative viability (NCI-H1437; first compound 0.1265 µM): 0.989
relative viability (NCI-H1437; first compound 0.4 µM): 0.939
relative viability (NCI-H1437; first compound 4 µM): 0.575
relative viability (NCI-H1755; first compound 0.04 µM): 1.01
relative viability (NCI-H1755; first compound 0.1265 µM): 0.913
relative viability (NCI-H1755; first compound 0.4 µM): 0.955
relative viability (NCI-H1755; first compound 4 µM): 0.941
relative viability (NCI-H1792; first compound 0.04 µM): 0.503
relative viability (NCI-H1792; first compound 0.1265 µM): 0.519
relative viability (NCI-H1792; first compound 0.4 µM): 0.564
relative viability (NCI-H1792; first compound 4 µM): 0.425
relative viability (NCI-H1915; first compound 0.04 µM): 1.05
relative viability (NCI-H1915; first compound 0.1265 µM): 1.07
relative viability (NCI-H1915; first compound 0.4 µM): 1.13
relative viability (NCI-H1915; first compound 4 µM): 1.12
relative viability (NCI-H1975; first compound 0.04 µM): 0.895
relative viability (NCI-H1975; first compound 0.1265 µM): 0.866
relative viability (NCI-H1975; first compound 0.4 µM): 0.81
relative viability (NCI-H1975; first compound 4 µM): 0.8
relative viability (NCI-H2009; first compound 0.04 µM): 1.24
relative viability (NCI-H2009; first compound 0.1265 µM): 1.13
relative viability (NCI-H2009; first compound 0.4 µM): 1.1
relative viability (NCI-H2009; first compound 4 µM): 0.961
relative viability (NCI-H2228; first compound 0.04 µM): 0.685
relative viability (NCI-H2228; first compound 0.1265 µM): 0.731
relative viability (NCI-H2228; first compound 0.4 µM): 0.34
relative viability (NCI-H2228; first compound 4 µM): 0.334
relative viability (NCI-H23; first compound 0.04 µM): 0.609
relative viability (NCI-H23; first compound 0.1265 µM): 0.496
relative viability (NCI-H23; first compound 0.4 µM): 0.489
relative viability (NCI-H23; first compound 4 µM): 0.494
relative viability (NCI-H460; first compound 0.04 µM): 0.858
relative viability (NCI-H460; first compound 0.1265 µM): 0.726
relative viability (NCI-H460; first compound 0.4 µM): 0.682
relative viability (NCI-H460; first compound 4 µM): 0.371
relative viability (NCI-H727; first compound 0.04 µM): 0.38
relative viability (NCI-H727; first compound 0.1265 µM): 0.348
relative viability (NCI-H727; first compound 0.4 µM): 0.332
relative viability (NCI-H727; first compound 4 µM): 0.3
relative viability (SK-LU-1; first compound 0.04 µM): 1.18
relative viability (SK-LU-1; first compound 0.1265 µM): 1.19
relative viability (SK-LU-1; first compound 0.4 µM): 1.27
relative viability (SK-LU-1; first compound 4 µM): 0.835
relative viability (SW 1573; first compound 0.04 µM): 0.814
relative viability (SW 1573; first compound 0.1265 µM): 0.914
relative viability (SW 1573; first compound 0.4 µM): 0.646
relative viability (SW 1573; first compound 4 µM): 0.771
